{"source": "patent US20110311601A1", "about": "“ANTIMICROBIAL MEDICAL DEVICES” (priority 2010, published 2011)", "experiment_in_all_cases": "micro-dilution assay (MBC, LD90)", "assay_type_in_all_cases": "cell-based", "key": {"[1]": {"test_system": "E. coli (ESBL 9) UR 2217/03 (wild-type)", "method": "(§1) The anti-bacterial activity of hβD2 was tested by a micro-dilution assay. Bacteria and fungi were streaked from a glycerol stock onto a Brain Heart Infusion (BHI) agar plate (3.7% w/v BHI Bouillon, 1.5% w/v Agar), grown overnight at 37° C. and 30° C., respectively and subsequently used to inoculate 40 ml of 3.7% w/v BHI Bouillon without any antibiotics in 100 ml flasks. Fresh cells were harvested by centrifugation at 16000 rpm for 10 min and washed twice with 10 mM sodium phosphate buffer, pH 7.2. The optical density was adjusted to 10^4 cells/ml. For anti-bacterial testing hβD2 was incubated in one well of a microtiter plate containing 100 μl of the bacterial suspension. Therefore, ten microlitres of hβD2 solution with a range of final concentrations tested from 0.0125 up to and including 100 mg/l was added to the bacterial suspension and incubated at 37° C. and 30° C., respectively for 2 h before colony forming units were determined. Colony forming units (CFU) were determined after plating 100 μl of a 1:100 dilution of the bacterial suspension on petri dishes with BHI medium and incubating them overnight at 37° C. For every group of the hβD2 added samples and the controls, 5 independent anti-bacterial assays were performed. A control (NC) of bacterial growth was examined for every independent assay. The number of CFU on the control (consisting of a single petri dish) was set to 0% bactericidal activity. The reduction in the CFU resulting from the anti-bacterial activity of hβD2 was related to the absolute CFU of the control within every independent assay. This value, given as a percentage of the bacterial “killing” activity, was used to describe the antibacterial activity. This kind of normalisation of the antibacterial data was performed for every experimental group.\n(§2) The antibacterial activity of hβD2 were given either as minimum bactericidal concentration (MBC), i.e., the minimum concentration of hβD2 in μg/ml which is required to kill 99.9% of the bacteria or fungi or as lethal dose (LD90), i.e., the concentration of hβD2 in μg/ml which is lethal for 90% of bacteria or fungi."}, "[2]": {"test_system": "Candida tropicalis ATCC 750", "method": "as §1, §2"}, "[3]": {"test_system": "Pseudomonas aeruginosa ATCC 11440", "method": "as §1, §2"}, "[4]": {"test_system": "Pseudomonas aeruginosa CF 479 mr (wild-type)", "method": "as §1, §2"}, "[5]": {"test_system": "E. coli (ESBL 1) UR 2884/99 (wild-type)", "method": "as §1, §2"}, "[6]": {"test_system": "Candida glabrata BK 9570/02 (wild-type)", "method": "as §1, §2"}, "[7]": {"test_system": "Staphylococcus epidermidis ATCC 14990", "method": "as §1, §2"}, "[8]": {"test_system": "Klebsiella pneumoniae (ESBL) CF 31 (wild-type)", "method": "as §1, §2"}, "[9]": {"test_system": "Klebsiella pneumoniae ATCC 13883", "method": "as §1, §2"}, "[10]": {"test_system": "Proteus mirabilis UR 1536/03 (wild-type)", "method": "as §1, §2"}, "[11]": {"test_system": "Enterococcus faecium (VRE) Ulm 68 (wild-type)", "method": "as §1, §2"}, "[12]": {"test_system": "Candida glabrata Va 27966/02 (wild-type)", "method": "as §1, §2"}, "[13]": {"test_system": "E. coli (ESBL 3) Va 4425/01 (wild-type)", "method": "as §1, §2"}, "[14]": {"test_system": "Klebsiella pneumoniae (ESBL) CF 2 (wild-type)", "method": "as §1, §2"}, "[15]": {"test_system": "Enterobacter cloacae Va 11263/03 (wild-type)", "method": "as §1, §2"}, "[16]": {"test_system": "Staphylococcus aureus (MRSA 358) (wild-type)", "method": "as §1, §2"}, "[17]": {"test_system": "Staphylococcus aureus ATCC 33593 (MRSA)", "method": "as §1, §2"}, "[18]": {"test_system": "Streptococcus mutans ATCC 35668", "method": "as §1, §2"}, "[19]": {"test_system": "Issatchenkia orientalis ATCC 6258", "method": "as §1, §2"}, "[20]": {"test_system": "Staphylococcus aureus ATCC 43300 (MRSA)", "method": "as §1, §2"}, "[21]": {"test_system": "Enterococcus faecium (VRE) W 356 (wild-type)", "method": "as §1, §2"}, "[22]": {"test_system": "Candida glabrata UR 5836/02 (wild-type)", "method": "as §1, §2"}, "[23]": {"test_system": "Proteus mirabilis UR 1354/03 (wild-type)", "method": "as §1, §2"}, "[24]": {"test_system": "Morganella morganii RV B4/97", "method": "as §1, §2"}, "[25]": {"test_system": "Staphylococcus aureus (MRSA 344) (wild-type)", "method": "as §1, §2"}}, "note": "Where no end group is shown, it is not given here.", "data": [{"substance": "human β-defensin-2 (GIGDPVTCLKSGAICHPVFCPRRYKQIGTCGLPGTKCCKKP; ends and bridges not checked; cysteine pairing not given here) [hβD2, recombinant hβD2]", "values": [{"measurement": "LD 90 = μg/ml 90% killing", "setting": "[1]", "result": 12.5, "unit": "µg/mL"}, {"measurement": "MBC = μg/ml 99.9% killing", "setting": "[1]", "result": 25, "unit": "µg/mL"}, {"measurement": "LD 90 = μg/ml 90% killing", "setting": "[2]", "result": 1.56, "unit": "µg/mL"}, {"measurement": "MBC = μg/ml 99.9% killing", "setting": "[2]", "result": 25, "unit": "µg/mL"}, {"measurement": "LD 90 = μg/ml 90% killing", "setting": "[3]", "result": 12.5, "unit": "µg/mL"}, {"measurement": "MBC = μg/ml 99.9% killing", "setting": "[3]", "result": 12.5, "unit": "µg/mL"}, {"measurement": "LD 90 = μg/ml 90% killing", "setting": "[4]", "result": 12.5, "unit": "µg/mL"}, {"measurement": "MBC = μg/ml 99.9% killing", "setting": "[4]", "result": 25, "unit": "µg/mL"}, {"measurement": "LD 90 = μg/ml 90% killing", "setting": "[5]", "result": 3.125, "unit": "µg/mL"}, {"measurement": "MBC = μg/ml 99.9% killing", "setting": "[5]", "result": 12.5, "unit": "µg/mL"}, {"measurement": "LD 90 = μg/ml 90% killing", "setting": "[6]", "result": ">100", "unit": "µg/mL"}, {"measurement": "MBC = μg/ml 99.9% killing", "setting": "[6]", "result": ">100", "unit": "µg/mL"}, {"measurement": "LD 90 = μg/ml 90% killing", "setting": "[7]", "result": 50, "unit": "µg/mL"}, {"measurement": "MBC = μg/ml 99.9% killing", "setting": "[7]", "result": 100, "unit": "µg/mL"}, {"measurement": "LD 90 = μg/ml 90% killing", "setting": "[8]", "result": 6.25, "unit": "µg/mL"}, {"measurement": "MBC = μg/ml 99.9% killing", "setting": "[8]", "result": 25, "unit": "µg/mL"}, {"measurement": "LD 90 = μg/ml 90% killing", "setting": "[9]", "result": 12.5, "unit": "µg/mL"}, {"measurement": "MBC = μg/ml 99.9% killing", "setting": "[9]", "result": 25, "unit": "µg/mL"}, {"measurement": "LD 90 = μg/ml 90% killing", "setting": "[10]", "result": 100, "unit": "µg/mL"}, {"measurement": "MBC = μg/ml 99.9% killing", "setting": "[10]", "result": ">100", "unit": "µg/mL"}, {"measurement": "LD 90 = μg/ml 90% killing", "setting": "[11]", "result": 100, "unit": "µg/mL"}, {"measurement": "MBC = μg/ml 99.9% killing", "setting": "[11]", "result": ">100", "unit": "µg/mL"}, {"measurement": "LD 90 = μg/ml 90% killing", "setting": "[12]", "result": 12.5, "unit": "µg/mL"}, {"measurement": "MBC = μg/ml 99.9% killing", "setting": "[12]", "result": ">100", "unit": "µg/mL"}, {"measurement": "LD 90 = μg/ml 90% killing", "setting": "[13]", "result": 6.25, "unit": "µg/mL"}, {"measurement": "MBC = μg/ml 99.9% killing", "setting": "[13]", "result": 12.5, "unit": "µg/mL"}, {"measurement": "LD 90 = μg/ml 90% killing", "setting": "[14]", "result": 6.25, "unit": "µg/mL"}, {"measurement": "MBC = μg/ml 99.9% killing", "setting": "[14]", "result": 25, "unit": "µg/mL"}, {"measurement": "LD 90 = μg/ml 90% killing", "setting": "[15]", "result": 12.5, "unit": "µg/mL"}, {"measurement": "MBC = μg/ml 99.9% killing", "setting": "[15]", "result": 50, "unit": "µg/mL"}, {"measurement": "LD 90 = μg/ml 90% killing", "setting": "[16]", "result": 100, "unit": "µg/mL"}, {"measurement": "MBC = μg/ml 99.9% killing", "setting": "[16]", "result": ">100", "unit": "µg/mL"}, {"measurement": "LD 90 = μg/ml 90% killing", "setting": "[17]", "result": 100, "unit": "µg/mL"}, {"measurement": "MBC = μg/ml 99.9% killing", "setting": "[17]", "result": ">100", "unit": "µg/mL"}, {"measurement": "LD 90 = μg/ml 90% killing", "setting": "[18]", "result": 100, "unit": "µg/mL"}, {"measurement": "MBC = μg/ml 99.9% killing", "setting": "[18]", "result": ">100", "unit": "µg/mL"}, {"measurement": "LD 90 = μg/ml 90% killing", "setting": "[19]", "result": 6.25, "unit": "µg/mL"}, {"measurement": "MBC = μg/ml 99.9% killing", "setting": "[19]", "result": 50, "unit": "µg/mL"}, {"measurement": "LD 90 = μg/ml 90% killing", "setting": "[20]", "result": 100, "unit": "µg/mL"}, {"measurement": "MBC = μg/ml 99.9% killing", "setting": "[20]", "result": ">100", "unit": "µg/mL"}, {"measurement": "LD 90 = μg/ml 90% killing", "setting": "[21]", "result": 50, "unit": "µg/mL"}, {"measurement": "MBC = μg/ml 99.9% killing", "setting": "[21]", "result": 100, "unit": "µg/mL"}, {"measurement": "LD 90 = μg/ml 90% killing", "setting": "[22]", "result": 6.25, "unit": "µg/mL"}, {"measurement": "MBC = μg/ml 99.9% killing", "setting": "[22]", "result": 50, "unit": "µg/mL"}, {"measurement": "LD 90 = μg/ml 90% killing", "setting": "[23]", "result": 100, "unit": "µg/mL"}, {"measurement": "MBC = μg/ml 99.9% killing", "setting": "[23]", "result": ">100", "unit": "µg/mL"}, {"measurement": "LD 90 = μg/ml 90% killing", "setting": "[24]", "result": 100, "unit": "µg/mL"}, {"measurement": "MBC = μg/ml 99.9% killing", "setting": "[24]", "result": ">100", "unit": "µg/mL"}, {"measurement": "LD 90 = μg/ml 90% killing", "setting": "[25]", "result": 100, "unit": "µg/mL"}, {"measurement": "MBC = μg/ml 99.9% killing", "setting": "[25]", "result": 100, "unit": "µg/mL"}]}]}
